Source: patent US20220202754A1, “USES OF PANTOTHENIC ACID IN PREPARATION OF A COMPOSITION FOR TREATING AND/OR PREVENTING TUMORS” (REVAISSANT (SHENZHEN) BIOSCIENCES CO., LTD., priority 2019, published 2022)

How the values were obtained:
[1] = tested on: liver cancer cells (HEPA1-6) transplanted tumors; assay: Pantothenic acid for tumor prevention and treatment in mice: size of subcutaneously transplanted tumors; assay type: in vivo, C57BL/6 mice; conditions: gavage 0.02 g/ml; HEPA1-6 subcutaneous tumor; p<0.01; FIG. 4 and FIG. 5
Description: FIG. 3 is a schematic diagram of the experimental procedure for detecting pantothenic acid, the metabolite of the intestinal bacteria to enhance an accumulation of CD8^+ cytotoxic T cells in the tumor microenvironment and to treat tumors in a mouse model of liver cancer. That is, an experimental procedure of administering pantothenic acid to mice subcutaneously transplanted with liver cancer cells (HEPA1-6). The time is expressed in days (Day, d) for administering pantothenic acid or for transplanting tumor cells.
Experimental animals: Twenty-seven C57BL/6 mice aged 3 to 4 weeks old in good mental state were purchased from the Experimental Animal Center of Sun Yat-sen University. The mice were randomly divided into 3 groups, nine mice for each group, and the 3 groups were a control group (the first group), a pantothenic acid group (the second group) and a Vitamin E control group (the third group) respectively. […] After dissection, the sizes of the subcutaneously transplanted tumors were measured, and the tumor cells were collected in situ. A relative amount of the CD8^+ T lymphocytes in the tumor microenvironment was detected and analyzed by flow cytometry.

[2] = tested on: CD8+ T lymphocytes in the liver tumor microenvironment; assay: Relative amount of CD8+ T lymphocytes in the tumor microenvironment by flow cytometry; assay type: in vivo, C57BL/6 mice; conditions: for increase of relative amount of CD8+ T lymphocytes in the liver tumor microenvironment: one typical mouse per group, FIG. 6
Description: Experimental animals: Twenty-seven C57BL/6 mice aged 3 to 4 weeks old in good mental state were purchased from the Experimental Animal Center of Sun Yat-sen University. The mice were randomly divided into 3 groups, nine mice for each group, and the 3 groups were a control group (the first group), a pantothenic acid group (the second group) and a Vitamin E control group (the third group) respectively. The 3 groups of mice were continually administered by gavage with pure water, pantothenic acid (at a concentration of 0.02 g/ml, purchased from the Sigma official website) and Vitamin E (at a concentration of 0.02 g/ml, purchased from the Sigma official website) for 3 to 4 weeks, respectively. After the mouse tumor (liver cancer) cells HEPA1-6 grew at logarithmic phase, they were digested with trypsin, and culture medium was neutralized. After centrifugation, the cells were collected, washed twice with DPBS to remove residual serum. Finally, the cells were redissolved with DPBS. After cell counting was completed, each mouse was subcutaneously inoculated with 10^6 cells into right axilla and continually treated by gavage, respectively, and the tumor-bearing mice were killed after 2 to 3 weeks. After dissection, the sizes of the subcutaneously transplanted tumors were measured, and the tumor cells were collected in situ. A relative amount of the CD8^+ T lymphocytes in the tumor microenvironment was detected and analyzed by flow cytometry.

## CC(C)(CO)[C@@H](O)C(=O)NCCC(=O)O [pantothenic acid]
[1]
  reduction of size of liver cancer cell transplanted tumors: about 80%
[2]; compared with pure water control group and Vitamin E control group, statistical analysis, p<0.05, FIG. 7
  relative amount of CD8+ T lymphocytes in the tumor microenvironment (percentage of total cells): significantly increases
[2]; compared with the Vitamin E control group
  increase of relative amount of CD8+ T lymphocytes in the liver tumor microenvironment: more than 3 times
[2]; compared with the pure water control group
  increase of relative amount of CD8+ T lymphocytes in the liver tumor microenvironment: more than 7 times
